For 18 compounds, IC50 results are on record in US8367698B2, “3-substituted sulfonyl piperidine derivative” (MSD K.K., priority 2008, dated 2013).

The experiment addresses T1, human LCE (Homo sapiens, UniProt Q9H5J4).
T1 sequence (Q9H5J4 1-265): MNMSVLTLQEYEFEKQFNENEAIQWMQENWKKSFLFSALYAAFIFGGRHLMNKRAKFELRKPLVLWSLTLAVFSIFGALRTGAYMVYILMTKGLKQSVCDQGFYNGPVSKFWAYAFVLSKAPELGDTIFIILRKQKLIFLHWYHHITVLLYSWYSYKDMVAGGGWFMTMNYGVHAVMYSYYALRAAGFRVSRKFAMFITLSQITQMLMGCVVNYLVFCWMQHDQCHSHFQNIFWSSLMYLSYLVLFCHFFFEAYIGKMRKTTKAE
The experiment can be described thus: LCE enzymatic activity inhibition test. It counts as biochemical. To be noted: palmitoyl-CoA and [14C]-malonyl-CoA substrate, 37° C. for 90 minutes, pH 6.5. As for the experimental part: A test compound was dissolved in dimethylsulfoxide (DMSO) at 10 mM, and then, the resulting solution was further diluted with DMSO to prepare a 1000-fold stock solution having a concentration 1000 times higher than the concentration to be evaluated. An LCE enzymatic activity inhibition test was carried out by a modified method of Moon (J. Biol. Chem., Vol. 276, pp. 45358-45366, (2001)) et al. That is, the diluted test compound was added to a 96-well assay plate (Corning, 96-Well Assay Block) in an amount of 1.0 μL per well, and thereafter, 50 μL of a phosphate buffer solution (a 100 mM potassium phosphate buffer solution (pH 6.5)), 25 μL of a substrate solution (a 100 mM potassium phosphate buffer solution (pH 6.5), 4.0 μM rotenone, 80 μM fatty acid-free bovine serum albumin, 160 μM palmitoyl-CoA, 80 μM malonyl-CoA, 3.5 μM [^14C]-malonyl-CoA (1.92 GBq/mmol, manufactured by Amersham, Inc.)) was added to each well, and further, 25 μL of an enzyme solution (a 100 mM potassium phosphate buffer solution (pH 6.5), 100 μg/mL human LCE) was added thereto. Then, the upper part of the plate was hermetically closed with a seal member, and the plate was incubated at 37° C. for 90 minutes while gently shaking and stirring. Thereafter, to each well, 100 μL of 5 N HCl was added and the assay plate was stirred at room temperature for 5 minutes, whereby the enzymatic reaction was stopped and also acyl-CoA was hydrolyzed. Thereafter, the enzymatic reaction solution in each well was adsorbed to each well of a 96-well GF/C filter plate (PerkinElmer, Unifilter 96GF/C) through which water had been passed in advance, and then, each well was washed with water to remove unadsorbed malonyl-CoA and the GF/C filter plate was dried at 50° C. for 60 minutes. Thereafter, to each well, 30 μL of a scintillator (PerkinElmer, Microscinti 0) was added and the upper part of the plate was sealed, and the radioactivity of the fixed [^14C] was measured using a microplate scintillation counter (PerkinElmer, Top Count) from which the enzymatic activity was determined. The human LCE enzyme inhibitory activity of the test compound was calculated using the radioactivity obtained from a well to which DMSO containing no test compound is added as a control.

`CC(C)Oc1ccc(NC(=O)[C@@H]2C[C@@H]3CC[C@H]2N(S(=O)(=O)c2cn(C)cn2)C3)cc1` (relative stereo) [Example 26, (1R*,4S*,6R*)-N-(4-Isopropoxyphenyl)-2-[(1-methyl-1H-imidazol-4-yl)sulfonyl]-2-azabicyclo[2.2.2]octane-6-carboxamide] yielded an IC50 of 0.268 µM.
Consider `CCCCS(=O)(=O)N1C[C@H]2CC[C@@H]1[C@H](C(=O)Nc1cc(C3CC3)n[nH]1)C2` (relative stereo) [Example 42, (1R*,4S*,6R*)-2-(Butylsulfonyl)-N-(3-cyclopropyl-1H-pyrazol-5-yl)-2-azabicyclo[2.2.2]octane-6-carboxamide], for which the 50% inhibitory concentration (IC50) worked out at 0.155 µM.
Next, `CC(C)Oc1ccc(NC(=O)[C@@H]2C[C@@H]3CC[C@H]2N(S(=O)(=O)c2ccccn2)C3)nc1` (relative stereo) [Example 47, (1R*,4S*,6R*)-N-(5-Isopropoxypyridin-2-yl)-2-(pyridin-2-ylsulfonyl)-2-azabicyclo[2.2.2]octane-6-carboxamide]: 0.019 µM; `CC(C)Oc1ccc(NC(=O)[C@@H]2C[C@@H]3CC[C@H]2N(S(=O)(=O)c2cn(C)cn2)C3)nc1` (relative stereo) [Example 48, (1R*,4S*,6R*)-N-(5-isopropoxypyridin-2-yl)-2-[(1-methyl-1H-imidazol-4-yl)sulfonyl]-2-azabicyclo[2.2.2]octane-6-carboxamide]: 0.159 µM; `CC(C)Oc1cc(NC(=O)[C@@H]2C[C@@H]3CC[C@H]2N(S(=O)(=O)c2cn(C)cn2)C3)n[nH]1` (relative stereo) [Example 105, (1R*,4S*,6R*)-N-(5-Isopropoxy-1H-pyrazol-3-yl)-2-[(1-methyl-1H-imidazol-4-yl)sulfonyl]-2-azabicyclo[2.2.2]octane-6-carboxamide]: 0.132 µM.
As for `COc1ccccc1C(=O)NCC1(c2ccccc2)CCCN(S(=O)(=O)c2ccccn2)C1` (stereo not drawn) [Example 64, 2-Methoxy-N-{[3-phenyl-1-(pyridin-2-ylsulfonyl)piperidin-3-yl]methyl}benzamide], the IC50 came to 0.02 µM.
`CC(C)Oc1ccc(C(=O)NCC2(c3ccccc3)CCCN(S(=O)(=O)c3ccccn3)C2)cc1` (stereo not drawn) [Example 73, 4-Isopropoxy-N-{[3-phenyl-1-(pyridin-2-ylsulfonyl)piperidin-3-yl]methyl}benzamide] registered a 50% inhibitory concentration (IC50) of 0.0037 µM. Compared with the last compound, the IC50 is about 5.4-fold lower.
As to `CC(C)Oc1ccc(C(=O)NCC2(c3ccccc3)CCCN(S(=O)(=O)c3cn(C)cn3)C2)cc1` (stereo not drawn) [Example 74, 4-Isopropoxy-N-({1-[(1-methyl-1H-imidazol-4-yl)sulfonyl]-3-phenylpiperidin-3-yl}methyl)benzamide], the IC50 worked out at 0.0174 µM.
Next, `CCCS(=O)(=O)N1CCCC(CNC(=O)c2ccc(OC(C)C)cn2)(c2ccccc2)C1` (stereo not drawn) [Example 76, 5-Isopropoxy-N-{[3-phenyl-1-(propylsulfonyl)piperidin-3-yl]methyl}pyridine-2-carboxamide]: 0.044 µM.
Next, `CC(C)Oc1ccc(C(=O)NCC2(c3ccccc3)CCCN(S(=O)(=O)c3ccccn3)C2)nc1` (stereo not drawn) [Example 78, 5-Isopropoxy-N-{[3-phenyl-1-(pyridin-2-ylsulfonyl)piperidin-3-yl]methyl}pyridine-2-carboxamide]: 0.014 µM.
In turn, `CC(C)Oc1ccc(C(=O)NCC2(c3ccccc3)CCCN(S(=O)(=O)c3cn(C)cn3)C2)nc1` (stereo not drawn) [Example 79, 5-Isopropoxy-N-({1-[(1-methyl-1H-imidazol-4-yl)sulfonyl]-3-phenylpiperidin-3-yl}methyl)pyridine-2-carboxamide] showed an IC50 of 0.049 µM. Compared with the last compound, the IC50 is about 3.5-fold higher.
For `CC(C)Oc1ccc(C(=O)NCC2(C)CCCN(S(=O)(=O)c3ccccc3)C2)cc1` (stereo not drawn) [Example 81, 4-Isopropoxy-N-{[3-methyl-1-(phenylsulfonyl)piperidin-3-yl]methyl}benzamide] the value was 0.051 µM; for `CC(C)Oc1ccc(C(=O)NCC2(C)CCCN(S(=O)(=O)c3ccccn3)C2)cc1` (stereo not drawn) [Example 82, 4-Isopropoxy-N-{[3-methyl-1-(pyridin-2-ylsulfonyl)piperidin-3-yl]methyl}benzamide], 0.06 µM.
On to `CCC1(CNC(=O)c2ccc(OC(C)C)cc2)CCCN(S(=O)(=O)c2ccccn2)C1` (stereo not drawn) [Example 85, N-{[3-Ethyl-1-(pyridin-2-ylsulfonyl)piperidin-3-yl]methyl}-4-isopropoxybenzamide], for which the IC50 was found to be 0.014 µM.
On to `CCC1(CNC(=O)c2ccc(OC(C)C)cc2)CCCN(S(=O)(=O)c2cn(C)cn2)C1` (stereo not drawn) [Example 86, N-({3-Ethyl-1-[(1-methyl-1H-imidazol-4-yl)sulfonyl]piperidin-3-yl}methyl)-4-isopropoxybenzamide], for which the IC50 was 0.284 µM. This IC50 is about 20-fold higher than that of the compound before.
`CC(C)Cc1cc(C(=O)NCC2(c3ccccc3)CCCN(S(=O)(=O)c3cn(C)cn3)C2)[nH]n1` (stereo not drawn) [Example 98, 3-Isobutyl-N-({1-[(1-methyl-1H-imidazol-4-yl)sulfonyl]-3-phenylpiperidin-3-yl}methyl)-1H-pyrazole-5-carboxamide] showed an IC50 of 0.012 µM.
In the case of `CCC1(C(=O)Nc2ccc(OC(C)C)cn2)CCCN(S(=O)(=O)c2cn(C)cn2)C1` (stereo not drawn) [Example 103, 3-Ethyl-N-(5-isopropoxypyridin-2-yl)-1-[(1-methyl-1H-imidazol-4-yl)sulfonyl]piperidine-3-carboxamide], the concentration for half-maximal inhibition (IC50) was 0.035 µM.
Next, `CCC1(C(=O)Nc2cc(OC(C)C)[nH]n2)CCCN(S(=O)(=O)c2cn(C)cn2)C1` (stereo not drawn) [Example 104, 3-Ethyl-N-(5-isopropoxy-1H-pyrazol-3-yl)-1-[(1-methyl-1H-imidazol-4-yl)sulfonyl]piperidine-3-carboxamide]: 0.038 µM.

The term IC50 denotes the concentration at which inhibition is half-maximal. Higher therefore signals weaker potency.
